{"source": "patent US11390617B2", "about": "“Methods of treating non-Hodgkin lymphoma using 2-(2,6-dioxopiperidin-3-yl)-4-((2-fluoro-4-((3-morpholinoazetidin-1-yl)methyl)benzyl)amino)isoindoline-1,3-dione” (Celgene Corporation, priority 2019, dated 2022)", "test_in_all_cases": "NHL cell line viability/apoptosis 384-well flow cytometry assay", "format_in_all_cases": "cell-based", "key": {"[1]": {"tested_on": "SU-DHL-1", "conditions": "SU-DHL-1 (DLBCL), 120 hours", "procedure": "(§1) The following exemplary anti-proliferative assay uses exemplary non-Hodgkin lymphoma (NIL) cell lines (including diffuse large B-cell lymphoma (DLBCL), follicular lymphoma (FL), and mantle cell lymphoma (MCL)) (Table 5). The in vitro growth inhibitory activity of Compound 1 described herein was evaluated using a 384-well flow cytometry assay.\n(§2) The cell lines in Table 5 were plated in 384-well flat bottom plates and assessed with increasing concentrations of compound ranging from 0.00015 to 10 μM or dimethyl sulfoxide (DMSO) control. The final concentration of DMSO was 0.1% (v/v). Following the addition of Compound 1 or DMSO and incubation for 120 hours, cell number and cell death were analyzed by flow cytometry (Attune®, Thermo Fisher) using Annexin V and the live-cell impermeant DNA dye, DRAQ7. Phosphatidylserine translocates from the inner layer to the outer layer of the cell membrane early in apoptosis and Annexin V binds to the exposed phosphatidylserine found on the surface of an apoptotic cell. The vital dye DRAQ7 is excluded by intact live cells and only stains cells that have died as a result of apoptosis or necrosis.\n(§3) Flow cytometry data analysis was then performed using the Flow Jo_v10 software to determine the number of viable cells (Annexin V and DRAQ7 double negative staining cells) and percentage of apoptotic cells (Annexin V positive cells) for each condition. The live cell count for every concentration was normalized to the DMSO control (considered as 100%) to calculate the percentage of viable cells remaining after treatment and graphed using GraphPad Prism 7.03. The IC50 (50% inhibitory concentration) and Emax (maximum efficacy achieved) values were then calculated by performing nonlinear regression curve fitting using log(inhibitor) vs. normalized response—variable slope analysis on GraphPad Prism 7.03. Area under the curve (AUC) was calculated by performing area under curve analysis on GraphPad Prism 7.03. Similarly, for apoptosis analysis, the percentage of apoptosis combining both “early” (Annexin V positive and DRAQ7 negative) and “late” apoptosis (Annexin V and DRAQ7 positive) cell gates relative to DMSO was graphed using GraphPad Prism 7.03. The AUC, EC50 (concentration of Compound 1 that produces half-maximal apoptosis response) and Ymax (maximal percentage of apoptosis achieved) values from apoptosis curves were calculated by performing area under curve analysis and nonlinear regression curve fitting using log(agonist) vs. normalized response—Variable slope analysis on GraphPad Prism 7.03.\n(§4) In Table 6, dose-response proliferation curves for the panel of NHL cell lines and non-linear curve-fit regression were used to determine IC50, AUC, and Emax for % viable cells (Emax for viability varies between 100 at low doses and 0 at high doses, which corresponds to inhibition of all viable cells), and dose-response apoptosis curves were used to determine the EC50, AUC, and Ymax for % apoptosis (Ymax for apoptosis varies from 0 at low doses and 100 at higher doses which corresponds to death of all cells). Tumor cells were exposed to serial dilutions (0.00015 to 10 μM) of Compound 1 or dimethyl sulfoxide (DMSO) control for 5 days. Viability and apoptosis for all cell lines was determined by Annexin V/[…] flow cytometry."}, "[2]": {"tested_on": "ROS-50", "conditions": "ROS-50 (DLBCL), 120 hours", "procedure": "as §1, §2, §3, §4"}, "[3]": {"tested_on": "U-2940", "conditions": "U-2940 (DLBCL), 120 hours", "procedure": "as §1, §2, §3, §4"}, "[4]": {"tested_on": "OCI-LY7", "conditions": "OCI-LY7 (DLBCL), 120 hours", "procedure": "as §1, §2, §3, §4"}, "[5]": {"tested_on": "DB", "conditions": "120 hours", "procedure": "as §1, §2, §3, §4"}, "[6]": {"tested_on": "OCI-LY10", "conditions": "OCI-LY10 (DLBCL), 120 hours", "procedure": "as §1, §2, §3, §4"}, "[7]": {"tested_on": "SU-DHL-16", "conditions": "SU-DHL-16 (DLBCL), 120 hours", "procedure": "as §1, §2, §3, §4"}, "[8]": {"tested_on": "STR428", "conditions": "STR428 (DLBCL), 120 hours", "procedure": "as §1, §2, §3, §4"}, "[9]": {"tested_on": "Mino", "conditions": "Mino (MCL), 120 hours", "procedure": "as §1, §2, §3, §4"}, "[10]": {"tested_on": "OCI-LY19", "conditions": "OCI-LY19 (DLBCL), 120 hours", "procedure": "as §1, §2, §3, §4"}, "[11]": {"tested_on": "SU-DHL-5", "conditions": "SU-DHL-5 (DLBCL), 120 hours", "procedure": "as §1, §2, §3, §4"}, "[12]": {"tested_on": "VAL", "conditions": "VAL (DLBCL), 120 hours", "procedure": "as §1, §2, §3, §4"}, "[13]": {"conditions": "Homo sapiens, read-out: IC50 (% Viable Cells)"}, "[14]": {"conditions": "read-out: IC50 (% Viable Cells)"}}}
{"smiles": "O=C1CC[C@H](N2C(=O)c3cccc(NCc4ccc(CN5CC(N6CCOCC6)C5)cc4F)c3C2=O)C(=O)N1", "note": "[Compound 1, (S)-2-(2,6-dioxopiperidin-3-yl)-4-((2-fluoro-4-((3-morpholinoazetidin-1-yl)methyl)benzyl)amino)isoindoline-1,3-dione]", "values": [{"measurement": "EC50", "setting": "[1]; Homo sapiens", "result": 1.1, "unit": "nM"}, {"measurement": "IC50", "setting": "[1]; [13]", "result": 0.549, "unit": "nM"}, {"measurement": "AUC (% Viable Cells)", "setting": "[1]", "result": 31.14}, {"measurement": "AUC (Apoptosis)", "setting": "[1]", "result": 690.1}, {"measurement": "Emax (% Viable Cells)", "setting": "[1]", "result": 2.485, "unit": "%"}, {"measurement": "Ymax (Apoptosis)", "setting": "[1]", "result": 73.83, "unit": "%"}, {"measurement": "AUC (% Viable Cells)", "setting": "[2]", "result": 762.1}, {"measurement": "AUC (Apoptosis)", "setting": "[2]", "result": 87.92}, {"measurement": "EC50", "setting": "[2]", "result": 335, "unit": "nM"}, {"measurement": "Emax (% Viable Cells)", "setting": "[2]", "result": 65.57, "unit": "%"}, {"measurement": "Ymax (Apoptosis)", "setting": "[2]", "result": 10.9, "unit": "%"}, {"measurement": "IC50", "setting": "[2]; [14]", "result": "≥ 10000", "unit": "nM"}, {"measurement": "EC50", "setting": "[3]; Homo sapiens", "result": 31.4, "unit": "nM"}, {"measurement": "IC50", "setting": "[3]; [13]", "result": 6.31, "unit": "nM"}, {"measurement": "AUC (% Viable Cells)", "setting": "[3]", "result": 70.43}, {"measurement": "AUC (Apoptosis)", "setting": "[3]", "result": 792.5}, {"measurement": "Emax (% Viable Cells)", "setting": "[3]", "result": 5.192, "unit": "%"}, {"measurement": "Ymax (Apoptosis)", "setting": "[3]", "result": 82.19, "unit": "%"}, {"measurement": "EC50", "setting": "[4]; Homo sapiens", "result": 16.3, "unit": "nM"}, {"measurement": "IC50", "setting": "[4]; [13]", "result": 6.48, "unit": "nM"}, {"measurement": "AUC (% Viable Cells)", "setting": "[4]", "result": 48.18}, {"measurement": "AUC (Apoptosis)", "setting": "[4]", "result": 682.7}, {"measurement": "Emax (% Viable Cells)", "setting": "[4]", "result": 4.191, "unit": "%"}, {"measurement": "Ymax (Apoptosis)", "setting": "[4]", "result": 71.18, "unit": "%"}, {"measurement": "AUC (% Viable Cells)", "setting": "[5]", "result": 941.4}, {"measurement": "AUC (Apoptosis)", "setting": "[5]", "result": 80.31}, {"measurement": "Emax (% Viable Cells)", "setting": "[5]", "result": 89.46, "unit": "%"}, {"measurement": "Ymax (Apoptosis)", "setting": "[5]", "result": 11.62, "unit": "%"}, {"measurement": "EC50", "setting": "[5]; Homo sapiens", "result": 68.8, "unit": "nM"}, {"measurement": "IC50", "setting": "[5]; [13]", "result": 10000, "unit": "nM"}, {"measurement": "EC50", "setting": "[6]; Homo sapiens", "result": 320, "unit": "nM"}, {"measurement": "IC50", "setting": "[6]; [13]", "result": 14.2, "unit": "nM"}, {"measurement": "AUC (% Viable Cells)", "setting": "[6]", "result": 125.3}, {"measurement": "AUC (Apoptosis)", "setting": "[6]", "result": 188.9}, {"measurement": "Emax (% Viable Cells)", "setting": "[6]", "result": 10.16, "unit": "%"}, {"measurement": "Ymax (Apoptosis)", "setting": "[6]", "result": 22.31, "unit": "%"}, {"measurement": "EC50", "setting": "[7]; Homo sapiens", "result": 662, "unit": "nM"}, {"measurement": "IC50", "setting": "[7]; [13]", "result": 154, "unit": "nM"}, {"measurement": "AUC (% Viable Cells)", "setting": "[7]", "result": 149.7}, {"measurement": "AUC (Apoptosis)", "setting": "[7]", "result": 492.6}, {"measurement": "Emax (% Viable Cells)", "setting": "[7]", "result": 7.137, "unit": "%"}, {"measurement": "Ymax (Apoptosis)", "setting": "[7]", "result": 60.79, "unit": "%"}, {"measurement": "AUC (% Viable Cells)", "setting": "[8]", "result": 43.48}, {"measurement": "AUC (Apoptosis)", "setting": "[8]", "result": 905.9}, {"measurement": "EC50", "setting": "[8]", "result": 102, "unit": "nM"}, {"measurement": "Emax (% Viable Cells)", "setting": "[8]", "result": 1.227, "unit": "%"}, {"measurement": "Ymax (Apoptosis)", "setting": "[8]", "result": 95.17, "unit": "%"}, {"measurement": "IC50", "setting": "[8]; [14]", "result": 94.7, "unit": "nM"}, {"measurement": "EC50", "setting": "[9]; Homo sapiens", "result": 2.05, "unit": "nM"}, {"measurement": "IC50", "setting": "[9]; [13]", "result": 5.78, "unit": "nM"}, {"measurement": "AUC (% Viable Cells)", "setting": "[9]", "result": 62.67}, {"measurement": "AUC (Apoptosis)", "setting": "[9]", "result": 968.2}, {"measurement": "Emax (% Viable Cells)", "setting": "[9]", "result": 5.638, "unit": "%"}, {"measurement": "Ymax (Apoptosis)", "setting": "[9]", "result": 97.04, "unit": "%"}, {"measurement": "EC50", "setting": "[10]; Homo sapiens", "result": 283, "unit": "nM"}, {"measurement": "IC50", "setting": "[10]; [13]", "result": 29.4, "unit": "nM"}, {"measurement": "AUC (% Viable Cells)", "setting": "[10]", "result": 72.49}, {"measurement": "AUC (Apoptosis)", "setting": "[10]", "result": 706.2}, {"measurement": "Emax (% Viable Cells)", "setting": "[10]", "result": 3.228, "unit": "%"}, {"measurement": "Ymax (Apoptosis)", "setting": "[10]", "result": 80.91, "unit": "%"}, {"measurement": "EC50", "setting": "[11]; Homo sapiens", "result": 3.6, "unit": "nM"}, {"measurement": "IC50", "setting": "[11]; [13]", "result": 2.39, "unit": "nM"}, {"measurement": "AUC (% Viable Cells)", "setting": "[11]", "result": 1.873}, {"measurement": "AUC (Apoptosis)", "setting": "[11]", "result": 934.1}, {"measurement": "Emax (% Viable Cells)", "setting": "[11]", "result": 0.1398, "unit": "%"}, {"measurement": "Ymax (Apoptosis)", "setting": "[11]", "result": 95.23, "unit": "%"}, {"measurement": "AUC (% Viable Cells)", "setting": "[12]", "result": 14.62}, {"measurement": "AUC (Apoptosis)", "setting": "[12]", "result": 936.7}, {"measurement": "EC50", "setting": "[12]", "result": 0.605, "unit": "nM"}, {"measurement": "Emax (% Viable Cells)", "setting": "[12]", "result": 0.9632, "unit": "%"}, {"measurement": "Ymax (Apoptosis)", "setting": "[12]", "result": 95.68, "unit": "%"}, {"measurement": "IC50", "setting": "[12]; [14]", "result": 0.57, "unit": "nM"}]}
